Reference: patent US9103791B1, “Thallium fluorescent ion indicator and assay” (Vanderbilt University, priority 2012, dated 2015)

Key:
[1] = tested on: HEK-293 cells stably transfected with hERG potassium channels; experiment: "No-wash" protocol thallium flux fluorescence assay; type: cell-based; conditions: no-wash protocol with 1.25 mM probenecid; range of dofetilide concentrations; compared to FluoZin-2, AM
Method: The no-wash protocol was conducted as follows. To a 384-well, black-wall, clear bottom, poly-D-lysine coated plate, add 20 μl/well of α-MEM containing 10% fetal bovine serum and 1× glutaGRO (Cell Culture Medium) and a 1000 cell/μl suspension of HEK-293 cells stably transfected with hERG potassium channels (Cell Plate). Incubate the Cell Plate overnight in a 5% CO2 cell culture incubator at 37° C. Remove the Cell Culture Medium from the Cell Plate and replace it with 20 μl/well Hanks Balanced Salt Solution+20 mM HEPES pH 7.3+1.25 mM Probenecid (sodium salt) (NW-Assay Buffer). Dissolve 25 μg thallium ion indicator (also referred to herein as a “dye”) in 25 μl DMSO containing 7% (w/v) Pluronic F-127. Add 12.5 μl of the dissolved thallium ion indicator to 10 ml Probenecid Assay Buffer (NW-Dye Loading Solution). Add 20 μl/well of Dye Loading Solution to the Cell Plate. […] Analyze data representing the amplitude of the fluorescent signal for each well at each of the 120 time points acquired during the Data Acquisition Protocol using Microsoft Excel by first dividing the fluorescence values from each individual well at each time point by the fluorescent value for that well at the first time point (Normalized Fluorescence Values). Calculate slopes of the Normalized Fluorescence Values between the 12 second and 22 second time points (Slope Values). […]

[2] = tested on: HEK-293 cells stably transfected with hERG potassium channels; experiment: "Wash" protocol thallium flux fluorescence assay; type: cell-based; conditions: range of dofetilide concentrations, slopes of normalized fluorescence 12-22 s, compared between indicators
Method: The wash protocol experiment was conducted as follows. To a 384-well, black-wall, clear bottom, poly-D-lysine coated plate, add 20 μl/well of α-MEM containing 10% fetal bovine serum and 1× glutaGRO (Cell Culture Medium) and a 1000 cell/μl suspension of HEK-293 cells stably transfected with hERG potassium channels (Cell Plate). Incubate the Cell Plate overnight in a 5% CO2 cell culture incubator at 37° C. Remove the Cell Culture Medium from the Cell Plate and replace it with 20 μl/well Hanks Balanced Salt Solution+20 mM HEPES pH 7.3 (Assay Buffer). Dissolve 25 μg of thallium ion indicator (also referred to as a “dye”) in 25 μl DMSO containing 7% (w/v) Pluronic F-127. Add 12.5 μl of the dissolved thallium ion indicator to 10 ml Assay Buffer (Dye Loading Solution). Add 20 μl/well of Dye Loading Solution to the Cell Plate. Incubate the Cell Plate containing Dye Loading Solution for 1 hour at room temperature. […] Analyze data representing the amplitude of the fluorescent signal for each well at each of the 120 time points acquired during the Data Acquisition Protocol using Microsoft Excel by first dividing the fluorescence values from each individual well at each time point by the fluorescent value for that well at the first time point (Normalized Fluorescence Values). Calculate slopes of the Normalized Fluorescence Values between the 12 second and 22 second time points (Slope Values). […]

Row | Structure (SMILES) | normalized signal amplitude (FIG. 2) [1] | fluorescence results (indicator performance, FIG. 1) [2]
1 | COc1cc(NC(=O)c2ccc3c(c2)C(=O)OC32c3ccc(OC(C)=O)cc3Oc3cc(OC(C)=O)ccc32)ccc1N(CC(=O)OCOC(C)=O)CC(=O)OCOC(C)=O [Example 1, bis(acetoxymethyl) 2,2′-((4-(3′,6′-diacetoxy-3-oxo-3H-spiro[isobenzofuran-1,9′-xanthen]-5-ylcarboxamido)-2-methoxyphenyl)azanediyl)diacetate] | substantial and unexpected improvement in normalized signal amplitude over FluoZin-2, AM | essentially indistinguishable
2 | COc1cc(NC(=O)c2ccc3c(c2)C(=O)OC32c3cc(F)c(OC(C)=O)cc3Oc3cc(OC(C)=O)c(F)cc32)ccc1N(CC(=O)OCOC(C)=O)CC(=O)OCOC(C)=O [FluoZin-2, AM, reference compound] | – | essentially indistinguishable
